How the values were obtained:
[1] = biological target: T1, Tyrosine-protein phosphatase non-receptor type 11 (Homo sapiens, UniProt Q06124); test: Inhibition of pIRS-1 peptide activated human wild type SHP2 FL (Met1 to Leu525 residues) using DiFMUP as substrate preincubated for 30 mins followed by substrate addition and measured after 30 mins by microplate reader method
T1 sequence (Q06124 whole entry): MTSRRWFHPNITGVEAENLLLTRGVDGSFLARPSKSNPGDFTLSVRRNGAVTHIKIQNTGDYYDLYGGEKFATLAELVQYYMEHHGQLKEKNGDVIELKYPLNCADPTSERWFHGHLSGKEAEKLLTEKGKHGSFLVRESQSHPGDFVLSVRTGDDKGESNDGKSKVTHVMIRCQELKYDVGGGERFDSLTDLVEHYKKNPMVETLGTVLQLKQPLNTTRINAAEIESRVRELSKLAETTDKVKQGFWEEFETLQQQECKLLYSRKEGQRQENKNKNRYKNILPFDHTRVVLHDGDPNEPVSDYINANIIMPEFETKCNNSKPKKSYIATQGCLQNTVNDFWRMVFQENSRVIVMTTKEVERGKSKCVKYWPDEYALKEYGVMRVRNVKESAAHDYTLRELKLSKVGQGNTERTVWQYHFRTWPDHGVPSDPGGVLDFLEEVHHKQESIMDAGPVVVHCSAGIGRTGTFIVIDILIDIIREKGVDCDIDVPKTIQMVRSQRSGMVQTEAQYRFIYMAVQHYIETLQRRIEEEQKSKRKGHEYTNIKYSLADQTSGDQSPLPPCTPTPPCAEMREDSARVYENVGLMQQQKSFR

[2] = biological target: T1, Tyrosine-protein phosphatase non-receptor type 11; test: Inhibition of human SHP2 in human NCI-H1975 cells assessed as reduction in ERK phosphorylation by Western blot analysis; format: cell-based
[3] = biological target: T1, Tyrosine-protein phosphatase non-receptor type 11; test: Inhibition of human SHP2 in human NCI-H1975/OSIR cells assessed as reduction in ERK phosphorylation by Western blot analysis; format: cell-based
[4] = Half life in Sprague-Dawley rat at 5 mg/kg, iv and measured upto 24 hrs by LC-MS/MS analysis; format: ADME, organism-based; settings: in vivo
[5] = Tmax in Sprague-Dawley rat at 5 mg/kg, iv and measured upto 24 hrs by LC-MS/MS analysis; format: ADME, organism-based; settings: in vivo
[6] = Cmax in Sprague-Dawley rat at 5 mg/kg, iv and measured upto 24 hrs by LC-MS/MS analysis; format: ADME, organism-based; parameters: dose 5 mg/kg, time < 24 hrs, route iv; settings: in vivo
[7] = AUC (0 to infinity) in Sprague-Dawley rat at 5 mg/kg, iv and measured upto 24 hrs by LC-MS/MS analysis; format: ADME, organism-based; parameters: dose 5 mg/kg, time < 24 hrs, route iv; settings: in vivo
[8] = Volume of distribution at steady state in Sprague-Dawley rat at 5 mg/kg, iv and measured upto 24 hrs by LC-MS/MS analysis; format: ADME, organism-based; settings: in vivo, read-out: Vdss
[9] = Clearance in Sprague-Dawley rat at 5 mg/kg, iv and measured upto 24 hrs by LC-MS/MS analysis; format: ADME, organism-based; settings: in vivo
[10] = Half life in Sprague-Dawley rat at 5 mg/kg, po and measured upto 24 hrs by LC-MS/MS analysis; format: ADME, organism-based; settings: in vivo
[11] = Tmax in Sprague-Dawley rat at 5 mg/kg, po and measured upto 24 hrs by LC-MS/MS analysis; format: ADME, organism-based; settings: in vivo
[12] = Cmax in Sprague-Dawley rat at 5 mg/kg, po and measured upto 24 hrs by LC-MS/MS analysis; format: ADME, organism-based; parameters: dose 5 mg/kg, time < 24 hrs, route po; settings: in vivo
[13] = AUC (0 to infinity) in Sprague-Dawley rat at 5 mg/kg, po and measured upto 24 hrs by LC-MS/MS analysis; format: ADME, organism-based; parameters: dose 5 mg/kg, time < 24 hrs, route po; settings: in vivo
[14] = Oral bioavailability in Sprague-Dawley rat at 5 mg/kg and measured upto 24 hrs by LC-MS/MS analysis; format: ADME, organism-based; settings: in vivo
[15] = biological target: Dual specificity tyrosine-phosphorylation-regulated kinase 1B (Homo sapiens) (UniProt Q9Y463); settings: dose 1000.0 nM
Sequence of Dual specificity tyrosine-phosphorylation-regulated kinase 1B (Homo sapiens) (Q9Y463 whole entry, looked up): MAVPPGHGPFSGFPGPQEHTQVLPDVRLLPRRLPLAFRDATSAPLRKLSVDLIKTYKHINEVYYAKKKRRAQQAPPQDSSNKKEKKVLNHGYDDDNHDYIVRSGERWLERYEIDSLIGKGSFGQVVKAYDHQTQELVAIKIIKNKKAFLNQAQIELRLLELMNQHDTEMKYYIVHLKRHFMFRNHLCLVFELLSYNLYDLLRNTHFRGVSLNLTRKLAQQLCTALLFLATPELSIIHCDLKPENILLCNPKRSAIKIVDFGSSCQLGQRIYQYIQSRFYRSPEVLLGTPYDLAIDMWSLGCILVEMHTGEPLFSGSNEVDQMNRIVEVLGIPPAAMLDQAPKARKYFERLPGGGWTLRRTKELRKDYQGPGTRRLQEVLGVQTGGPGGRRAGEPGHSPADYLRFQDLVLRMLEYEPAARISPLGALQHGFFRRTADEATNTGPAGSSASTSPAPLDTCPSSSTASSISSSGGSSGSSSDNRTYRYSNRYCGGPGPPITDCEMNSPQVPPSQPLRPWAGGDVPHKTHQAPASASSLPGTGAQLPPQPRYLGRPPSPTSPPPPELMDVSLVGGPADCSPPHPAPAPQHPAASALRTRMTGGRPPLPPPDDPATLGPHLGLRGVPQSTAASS
Description: Inhibition of DYRK1B (unknown origin) at 1000 nM by KINOMEscan assay relative to control

[16] = biological target: Serine/threonine-protein kinase 32C (Homo sapiens) (UniProt Q86UX6); settings: dose 1000.0 nM
Sequence of Serine/threonine-protein kinase 32C (Homo sapiens) (Q86UX6 whole entry): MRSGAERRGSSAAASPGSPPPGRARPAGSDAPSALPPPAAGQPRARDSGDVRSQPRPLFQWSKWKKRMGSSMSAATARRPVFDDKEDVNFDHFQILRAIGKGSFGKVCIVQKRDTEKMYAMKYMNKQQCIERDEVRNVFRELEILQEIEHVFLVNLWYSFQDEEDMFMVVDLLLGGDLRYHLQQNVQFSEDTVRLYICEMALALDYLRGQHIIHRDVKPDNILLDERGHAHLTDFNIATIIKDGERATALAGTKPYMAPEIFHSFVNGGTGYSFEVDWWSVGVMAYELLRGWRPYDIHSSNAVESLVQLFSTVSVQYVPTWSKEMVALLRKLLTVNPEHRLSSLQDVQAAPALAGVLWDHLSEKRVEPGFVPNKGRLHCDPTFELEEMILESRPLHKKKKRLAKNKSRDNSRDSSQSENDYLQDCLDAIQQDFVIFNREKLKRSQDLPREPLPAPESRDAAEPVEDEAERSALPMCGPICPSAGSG
Description: Inhibition of YANK3 (unknown origin) at 1000 nM by KINOMEscan assay relative to control

[17] = biological target: T2, TGF-beta receptor type-1 (Homo sapiens) (UniProt P36897); settings: dose 1000.0 nM
T2 sequence (whole entry): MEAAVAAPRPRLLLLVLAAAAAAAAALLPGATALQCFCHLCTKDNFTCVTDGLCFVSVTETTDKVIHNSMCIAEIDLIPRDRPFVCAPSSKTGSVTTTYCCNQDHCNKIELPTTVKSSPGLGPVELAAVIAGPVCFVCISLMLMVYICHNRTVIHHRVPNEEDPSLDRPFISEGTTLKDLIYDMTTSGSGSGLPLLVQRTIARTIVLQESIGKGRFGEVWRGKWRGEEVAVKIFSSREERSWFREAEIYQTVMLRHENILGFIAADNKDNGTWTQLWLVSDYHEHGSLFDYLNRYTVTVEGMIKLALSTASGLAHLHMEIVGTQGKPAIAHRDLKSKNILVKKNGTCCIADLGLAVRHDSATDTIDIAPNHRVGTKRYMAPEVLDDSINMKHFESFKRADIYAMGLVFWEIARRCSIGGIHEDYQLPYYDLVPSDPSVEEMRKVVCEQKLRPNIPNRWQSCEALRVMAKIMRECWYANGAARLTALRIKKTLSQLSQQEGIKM
Description: Inhibition of TGFBR1 (unknown origin) at 1000 nM by KINOMEscan assay relative to control

[18] = biological target: Insulin receptor (Homo sapiens) (UniProt P06213); settings: dose 1000.0 nM
Sequence of Insulin receptor (Homo sapiens) (P06213 28-758 limits assumed): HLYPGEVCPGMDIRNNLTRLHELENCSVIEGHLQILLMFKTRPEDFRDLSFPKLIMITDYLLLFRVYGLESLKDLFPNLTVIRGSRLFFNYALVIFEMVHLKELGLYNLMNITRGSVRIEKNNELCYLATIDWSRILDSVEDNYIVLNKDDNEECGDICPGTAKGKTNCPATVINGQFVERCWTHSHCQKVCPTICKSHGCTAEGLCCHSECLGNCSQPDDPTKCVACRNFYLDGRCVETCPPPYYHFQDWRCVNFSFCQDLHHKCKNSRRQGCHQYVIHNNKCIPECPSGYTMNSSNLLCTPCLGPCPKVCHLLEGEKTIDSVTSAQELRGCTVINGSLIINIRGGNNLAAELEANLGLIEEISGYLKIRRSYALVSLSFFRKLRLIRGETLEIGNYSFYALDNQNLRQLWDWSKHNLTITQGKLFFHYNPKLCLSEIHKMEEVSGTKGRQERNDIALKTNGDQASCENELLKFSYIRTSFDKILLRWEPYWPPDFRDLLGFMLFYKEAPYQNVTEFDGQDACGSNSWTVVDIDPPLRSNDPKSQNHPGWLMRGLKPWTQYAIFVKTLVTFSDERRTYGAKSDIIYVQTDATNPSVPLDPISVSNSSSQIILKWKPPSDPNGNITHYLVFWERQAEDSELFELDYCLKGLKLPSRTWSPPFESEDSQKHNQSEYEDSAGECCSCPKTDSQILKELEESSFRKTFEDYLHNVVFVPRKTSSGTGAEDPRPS
Sequence of Insulin receptor (Homo sapiens) (P06213 763-1382 limits assumed): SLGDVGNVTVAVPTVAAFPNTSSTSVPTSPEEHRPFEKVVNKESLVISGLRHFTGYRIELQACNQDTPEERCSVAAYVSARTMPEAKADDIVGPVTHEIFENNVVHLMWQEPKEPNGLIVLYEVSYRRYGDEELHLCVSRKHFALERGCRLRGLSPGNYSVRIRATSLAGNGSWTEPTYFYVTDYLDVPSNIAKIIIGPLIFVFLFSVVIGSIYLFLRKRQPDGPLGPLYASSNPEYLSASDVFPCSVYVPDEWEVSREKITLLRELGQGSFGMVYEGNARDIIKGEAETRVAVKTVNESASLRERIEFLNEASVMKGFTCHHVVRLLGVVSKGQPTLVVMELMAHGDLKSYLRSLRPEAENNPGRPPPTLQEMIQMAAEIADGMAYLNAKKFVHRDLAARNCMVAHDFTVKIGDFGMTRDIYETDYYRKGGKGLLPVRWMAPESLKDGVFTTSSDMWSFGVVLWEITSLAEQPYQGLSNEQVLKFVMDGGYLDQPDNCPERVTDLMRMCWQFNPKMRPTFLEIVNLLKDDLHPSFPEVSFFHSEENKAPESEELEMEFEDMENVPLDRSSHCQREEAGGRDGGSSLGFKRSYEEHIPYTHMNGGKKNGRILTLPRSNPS
Description: Inhibition of INSR (unknown origin) at 1000 nM by KINOMEscan assay relative to control

[19] = biological target: T3, Serine/threonine-protein kinase STK11 (Homo sapiens) (UniProt Q15831); settings: dose 1000.0 nM
T3 sequence (whole entry): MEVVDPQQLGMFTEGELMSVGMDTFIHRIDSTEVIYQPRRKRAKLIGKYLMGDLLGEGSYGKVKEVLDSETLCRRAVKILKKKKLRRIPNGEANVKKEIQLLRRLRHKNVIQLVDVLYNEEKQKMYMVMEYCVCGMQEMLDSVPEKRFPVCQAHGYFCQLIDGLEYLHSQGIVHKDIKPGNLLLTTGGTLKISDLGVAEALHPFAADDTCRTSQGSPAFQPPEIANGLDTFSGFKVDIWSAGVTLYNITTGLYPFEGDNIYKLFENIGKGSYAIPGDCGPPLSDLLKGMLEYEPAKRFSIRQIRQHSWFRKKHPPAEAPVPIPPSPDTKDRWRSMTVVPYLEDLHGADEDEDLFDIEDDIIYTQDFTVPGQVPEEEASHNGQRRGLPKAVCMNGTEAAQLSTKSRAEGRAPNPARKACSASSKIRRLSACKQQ
Description: Inhibition of LKB1 (unknown origin) at 1000 nM by KINOMEscan assay relative to control

[20] = biological target: Phosphatidylinositol 4-phosphate 3-kinase C2 domain-containing subunit beta (Homo sapiens) (UniProt O00750); settings: dose 1000.0 nM
Sequence of Phosphatidylinositol 4-phosphate 3-kinase C2 domain-containing subunit beta (Homo sapiens) (O00750 whole entry, the tested form may be a part): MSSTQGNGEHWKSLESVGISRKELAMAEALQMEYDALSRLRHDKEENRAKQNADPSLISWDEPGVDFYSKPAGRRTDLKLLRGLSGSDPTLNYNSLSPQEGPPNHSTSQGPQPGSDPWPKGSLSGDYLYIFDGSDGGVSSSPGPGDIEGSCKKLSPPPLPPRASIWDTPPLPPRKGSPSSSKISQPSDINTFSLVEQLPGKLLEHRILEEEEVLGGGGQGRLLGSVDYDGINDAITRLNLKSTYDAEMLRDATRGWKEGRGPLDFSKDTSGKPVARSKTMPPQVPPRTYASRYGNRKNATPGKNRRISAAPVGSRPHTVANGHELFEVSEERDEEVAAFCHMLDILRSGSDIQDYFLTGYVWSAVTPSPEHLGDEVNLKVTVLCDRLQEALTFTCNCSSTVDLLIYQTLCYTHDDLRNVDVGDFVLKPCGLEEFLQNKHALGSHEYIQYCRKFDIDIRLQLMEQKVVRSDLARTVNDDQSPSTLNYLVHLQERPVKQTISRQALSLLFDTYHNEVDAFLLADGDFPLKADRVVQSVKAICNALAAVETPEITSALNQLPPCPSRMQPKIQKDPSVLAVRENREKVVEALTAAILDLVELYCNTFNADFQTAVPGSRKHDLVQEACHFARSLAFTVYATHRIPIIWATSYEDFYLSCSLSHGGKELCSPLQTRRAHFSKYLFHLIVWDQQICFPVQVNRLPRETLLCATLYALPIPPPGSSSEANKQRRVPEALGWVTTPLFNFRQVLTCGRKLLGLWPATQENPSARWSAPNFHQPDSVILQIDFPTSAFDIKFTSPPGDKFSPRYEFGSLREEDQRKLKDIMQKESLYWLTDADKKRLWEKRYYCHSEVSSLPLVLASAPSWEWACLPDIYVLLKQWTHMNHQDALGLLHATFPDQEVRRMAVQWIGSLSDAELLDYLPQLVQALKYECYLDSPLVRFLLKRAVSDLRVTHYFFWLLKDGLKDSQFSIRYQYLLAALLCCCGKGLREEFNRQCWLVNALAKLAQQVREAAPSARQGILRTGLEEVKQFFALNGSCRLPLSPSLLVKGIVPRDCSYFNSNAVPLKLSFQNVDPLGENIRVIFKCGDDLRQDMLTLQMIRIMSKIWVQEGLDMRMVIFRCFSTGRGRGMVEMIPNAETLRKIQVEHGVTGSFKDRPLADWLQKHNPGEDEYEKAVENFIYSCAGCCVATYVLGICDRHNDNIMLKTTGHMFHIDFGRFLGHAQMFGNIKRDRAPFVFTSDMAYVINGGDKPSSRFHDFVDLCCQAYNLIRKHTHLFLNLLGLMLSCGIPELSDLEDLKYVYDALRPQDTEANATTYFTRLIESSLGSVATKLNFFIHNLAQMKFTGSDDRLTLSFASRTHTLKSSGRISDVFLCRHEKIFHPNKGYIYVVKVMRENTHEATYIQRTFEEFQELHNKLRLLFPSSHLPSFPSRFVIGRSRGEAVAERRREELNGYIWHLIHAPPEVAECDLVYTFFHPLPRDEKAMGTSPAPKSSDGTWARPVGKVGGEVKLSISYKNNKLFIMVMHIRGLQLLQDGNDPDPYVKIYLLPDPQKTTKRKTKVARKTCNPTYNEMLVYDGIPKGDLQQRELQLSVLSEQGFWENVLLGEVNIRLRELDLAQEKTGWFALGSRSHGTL
Description: Inhibition of PIK3C2B (unknown origin) at 1000 nM by KINOMEscan assay relative to control

SMILES | IC50 [1] | also measured
CCOC(=O)N1CCN(c2ncc(C(=O)Nc3ccccc3)c(N)n2)CC1 | 8.5 µM | 
CCOC(=O)C1CCN(c2ncc(C(=O)Nc3ccccc3)c(N)n2)CC1 | 2.1 µM | 
COc1ccccc1CN1CCCC(c2[nH]ccc2C(N)=O)C1 (stereo unspecified) | 19 µM | 
CC1(N)CCN(c2ncc(C(=O)Nc3cccc4ccccc34)c(N)n2)CC1 | 100 µM | 
CC1(N)CCN(c2ncc(C(=O)Nc3cccc(-c4ccccc4)c3)c(N)n2)CC1 | > 100 µM | 
CC1(N)CCN(c2ncc(C(=O)Nc3cccnc3)c(N)n2)CC1 | 0.089 µM | IC50 [2]: 0.59 µM; IC50 [3]: 0.63 µM; half-life [4]: 5.31 h; Tmax [5]: 4.98 min; Cmax [6]: 854 ng/mL; AUC(0-inf) [7]: 1880 ng·h/mL; Vd [8]: 14 L/kg; clearance [9]: 44.8 mL/min/kg; half-life [10]: 4.77 h; Tmax [11]: 2.17 h; Cmax [12]: 101 ng/mL; AUC(0-inf) [13]: 1040 ng·h/mL; bioavailability [14]: 55.1%; inhibition [15]: 50%; inhibition [16]: 54%; inhibition [17]: 64%; inhibition [18]: 69%; inhibition [19]: > 35%; inhibition [20]: > 35%
CCCCN(C)c1ncc(C(=O)Nc2ccccc2)c(N)n1 | 25 µM | 
Nc1nc(N2CCN(c3ccccn3)CC2)ncc1C(=O)Nc1ccccc1 | > 100 µM | 
Nc1nc(N2CCN(c3ccccc3)CC2)ncc1C(=O)Nc1ccccc1 | > 100 µM | 
Nc1nc(N2CCN(C(=O)c3ccco3)CC2)ncc1C(=O)Nc1ccccc1 | 100 µM | 
CCCN1CCN(c2ncc(C(=O)Nc3ccccc3)c(N)n2)CC1 | 11.5 µM | 
Nc1nc(N2CCC3(CC2)OCCO3)ncc1C(=O)Nc1ccccc1 | 12.8 µM | 
CC1(N)CCN(c2ncc(C(=O)Nc3cc(Cl)cc(Cl)c3)c(N)n2)CC1 | 3.4 µM | 
CC1(N)CCN(c2ncc(C(=O)Nc3ccccc3)c(N)n2)CC1 | 1.4 µM | 
COc1ccc(N2CCN(c3ncc(C(=O)Nc4ccccc4)c(N)n3)CC2)cc1 | > 100 µM | 
CC1(N)CCN(c2ncc(C(=O)NCc3ccccn3)c(N)n2)CC1 | 8.1 µM | 
COc1ccc(NC(=O)c2cnc(N3CCC(C)(N)CC3)nc2N)cc1OC | 2.3 µM | 
COc1ccc2nc(C)cc(Nc3ccccc3OC)c2c1 | 13.5 µM | 
CC1(N)CCN(c2ncc(C(=O)Nc3ccc([N+](=O)[O-])cc3)c(N)n2)CC1 | 2 µM | 

SMILES | IC50 [1] | also measured
CC1(N)CCN(c2ncc(C(=O)Nc3ccc(Cl)c(Cl)c3)c(N)n2)CC1 | 0.25 µM | 
CC(C)NC(=O)CN1CCN(c2ncc(C(=O)Nc3ccccc3)c(N)n2)CC1 | 5.6 µM | 
CC1(N)CCN(c2ncc(C(=O)Nc3ccc(F)cc3)c(N)n2)CC1 | 0.62 µM | 
Nc1nc(N2CCCC2)ncc1C(=O)Nc1ccccc1 | 50 µM | 
CC1(N)CCN(c2ncc(C(=O)Nc3ccc4c(c3)Cc3ccccc3-4)c(N)n2)CC1 | 100 µM | 
COc1ccc(NC(=O)c2cnc(N3CCC(C)(N)CC3)nc2N)cc1 | 1.9 µM | 
CC(C)(C)OC(=O)N1CCN(c2ncc(C(=O)Nc3ccccc3)c(N)n2)CC1 | 35 µM | 
Nc1nc(N2CCc3ccccc3C2)ncc1C(=O)Nc1ccccc1 | 100 µM | 
CN(Cc1ccccc1)c1ncc(C(=O)Nc2ccccc2)c(N)n1 | > 100 µM | 
CC(=O)N1CCN(c2ncc(C(=O)Nc3ccccc3)c(N)n2)CC1 | 6.7 µM | 
COc1cccc(OC)c1NC(=O)c1cnc(N2CCC(C)(N)CC2)nc1N | 12.5 µM | 
Nc1nc(N2CCN(C3CCCCC3)CC2)ncc1C(=O)Nc1ccccc1 | 100 µM | 
Nc1nc(N2CCSCC2)ncc1C(=O)Nc1ccccc1 | 5.6 µM | 
CC1(N)CCN(c2ncc(C(=O)Nc3ccc4ccccc4c3)c(N)n2)CC1 | 8 µM | 
CCN1CCN(c2ncc(C(=O)Nc3ccccc3)c(N)n2)CC1 | 10.2 µM | 
CC1(N)CCN(c2ncc(C(=O)Nc3ccccn3)c(N)n2)CC1 | 0.8 µM | 
Nc1nc(N2CCOCC2)ncc1C(=O)Nc1ccccc1 | 9.5 µM | 
CC(C)N1CCN(c2ncc(C(=O)Nc3ccccc3)c(N)n2)CC1 | 9.3 µM | 
